In US20210290648A1, “Potentiation of B-Lactam Antibiotics and B-Lactam/B-Lactamase Inhibitor Combinations Against Multidrug and Extensively Drug-Resistant Pseudomonas Aeruginosa Using Non-Ribosomal Tobramycin-Cyclam Conjugates” (University of Manitoba, priority 2018, published 2021):

Columns and labels:
[1] = tested on: PA 114228; assay: Checkerboard combination study / MIC; assay type: cell-based, Pseudomonas aeruginosa; conditions: for MICCombination (antibiotic): MIC of antibiotic combined with compound 2; for FICI: antibiotic + compound 2; for MICAntibiotic: antibiotic alone
[2] = tested on: Galleria mellonella larvae; assay: Galleria mellonella tolerability study; conditions: for survival of larvae: 100 mg/kg and 200 mg/kg injected alone, after 48 h
Experimental: In vitro and in vivo discordances have been observed in antimicrobial chemotherapy, thus, therapeutic efficacy may not necessarily be reliably extrapolated based on in vitro data alone. […] Colistin (100 mg/kg), an antibiotic well known for its toxicity towards eukaryotes, served as a positive control for this experiment while PBS served as negative control. […] Survivability was scored for a total of 4 days.
In vivo larvae-infection model. In vivo synergistic effects were determined using Galleria mellonella infection model, as previously described (20). Briefly, worms were purchased from The Worm Lady® Live Feeder (ON, Canada), stored in their natural habitat at 16° C., and used within 10 days of delivery. The worms (average weight of 250 mg) were used for tolerability and efficacy studies. Tolerability study was performed by injecting 10 μL of antimicrobial agents only at concentrations equivalent to 100 mg/kg or 200 mg/kg. The worms (ten in each group) were incubated at 37° C. and monitored for 96 h. […] Overnight grown culture of respective MDR P. aeruginosa isolate was standardized to 0.5 McFarland standard and diluted in PBS to a final concentration of […]. 10 μL of this solution (5 CFU) was injected into each worm and incubated for 3 h at 37° C. […] Worms treated with 10 μL PBS or high concentrations of test antibiotics served as negative and positive control, respectively. The worms were incubated at 37° C. in Petri dishes lined with filter paper and scored for survivability every 6 h for up to 48 h. This experiment was repeated to give a total of thirty worms (n=30) in each case. Survival data curves were plotted using Kaplan-Meier survival analysis.

[3] = tested on: PA 101885; assay: Checkerboard combination study / MIC; assay type: cell-based, Pseudomonas aeruginosa; conditions: for MICCombination (antibiotic): MIC of antibiotic combined with compound 2; for FICI: antibiotic + compound 2; for MICAntibiotic: antibiotic alone; for FICAntibiotic: with compound 2
[4] = tested on: MDR/XDR P. aeruginosa clinical isolates; assay: MIC and checkerboard, panel of clinical isolates; assay type: cell-based, Pseudomonas aeruginosa; conditions: antibiotic + compound 2 (8.7 μM); resistant P. aeruginosa isolates
[5] = tested on: PA 100036; assay: Checkerboard combination study / MIC; assay type: cell-based, Pseudomonas aeruginosa; conditions: for MICCombination (antibiotic): MIC of antibiotic combined with compound 2; for FICI: antibiotic + compound 2; for MICAntibiotic: antibiotic alone; for FICAntibiotic: with compound 2
[6] = tested on: PAO200; assay type: cell-based, Pseudomonas aeruginosa; conditions: for MIC of antibiotic alone in PAO200: PAO200 efflux-deficient
From the text: (§1) PAO200 is a tnexA-rnexB-oprM deletion strain while PAO750 lacks five important RND pumps (McxAB-OprM, MexCD-OprJ, MexEF-OprN, Mex JK, and MexXY) and the outer membrane protein OpmH (46, 47). Some of these pumps are homologues of broad substrate specificities that extrude different classes of antimicrobial agents and confer resistance on P. aeruginosa (48).
(§2) Antimicrobial Susceptibility Assay. The in vitro antimicrobial activity of all compounds/antibiotics against a panel of bacteria was evaluated by microbroth dilution method in accordance with the Clinical and Laboratory Standards Institute (CLSI) guidelines. Overnight grown bacterial cultures were diluted in saline to achieve a 0.5 McFarland turbidity, followed by 1:50 dilution in Mueller-Hinton broth (MHB) for inoculation to a final concentration of approximately 5×10^5CFU/mL. The antimicrobial agents were 2-fold serially diluted in MHB in a 96-well plate and incubated at 37° C. with equal volumes of inoculum for 18 h. The lowest concentration that prevented the visible growth of bacteria was defined as the MIC for each antimicrobial agent. The broth with or without bacterial cells was used as positive or negative control, respectively.
(§3) Checkerboard Assay. Combination studies with different antibiotics were performed in 96-well plates as previously described (22). Briefly, the antibiotic of interest was serially diluted in MHB along the abscissa while the adjuvant (newly synthesized conjugates) was serially diluted in MHB along the ordinate. This creates a 10×7 matrix wherein each well consists of a combination of different antibiotic and adjuvant concentrations. Overnight grown bacterial cultures were diluted in saline to achieve a 0.5 McFarland turbidity, followed by 1:50 dilution in Mueller-Hinton broth (MHB) for inoculation to a final concentration of approximately 5×10^5CFU/mL. Equal volume of this bacterial culture was then added to each well and incubated at 37° C. for 18 h. After incubation, the plates were read on EMax® Plus microplate reader (Molecular Devices, Sunnyvale, Calif., USA) at 590 nm. MIC was recorded as wells with the lowest concentration of drugs with no bacterial growth. The fractional inhibitory concentration (FIC) for each antibiotic was calculated by dividing the MIC of the antibiotic in the presence of adjuvant by the MIC of the antibiotic alone. Similarly, the FIC of adjuvant was calculated by dividing the MIC of the adjuvant in the presence of antibiotic by the MIC of the adjuvant alone. FIC index is the sum of both FICs. FIC indices of <0.5 were deemed synergistic; 0.5-4, no interaction; and >4, antagonistic.

[7] = tested on: PAO750; assay type: cell-based, Pseudomonas aeruginosa; conditions: for MIC of antibiotic alone in PAO750: PAO750 efflux-deficient
From the text: as §1, §2, §3

[8] = tested on: PA 101243; assay: Checkerboard combination study / MIC; assay type: cell-based, Pseudomonas aeruginosa; conditions: PA 101243; for MICCombination (antibiotic): MIC of antibiotic combined with compound 2; for FICI: antibiotic + compound 2; for MICAntibiotic: antibiotic alone; for FICAntibiotic: with compound 2
[9] = tested on: PA 259; assay: Checkerboard combination study / MIC; assay type: cell-based, Pseudomonas aeruginosa; conditions: for MICCombination (antibiotic): MIC of antibiotic combined with compound 2; for FICI: antibiotic + compound 2; for MICAntibiotic: antibiotic alone
[10] = tested on: PA 262; assay: Checkerboard combination study / MIC; assay type: cell-based, Pseudomonas aeruginosa; conditions: for MICCombination (antibiotic): MIC of antibiotic combined with compound 2; for FICI: antibiotic + compound 2; for MICAntibiotic: antibiotic alone; for FICAntibiotic: with compound 2
[11] = tested on: PA 264; assay: Checkerboard combination study / MIC; assay type: cell-based, Pseudomonas aeruginosa; conditions: for MICCombination (antibiotic): MIC of antibiotic combined with compound 2; for FICI: antibiotic + compound 2; for MICAntibiotic: antibiotic alone; for FICAntibiotic: with compound 2

| SMILES | survival of larvae [2] [%] | MICCombination (antibiotic) [3] [µg/mL] | FICI [3] | MICAntibiotic [3] [µg/mL] | resistant isolates reaching CLSI clinical breakpoint [4] | MICCombination (antibiotic) [5] [µg/mL] | FICI [5] | MICAntibiotic [5] [µg/mL] | MIC of antibiotic alone in PAO200 [6] [µg/mL] | MIC of antibiotic alone in PAO750 [7] [µg/mL] | MICCombination (antibiotic) [8] [µg/mL] | FICI [8] | MICAntibiotic [8] [µg/mL] | MICCombination (antibiotic) [9] [µg/mL] | FICI [9] | MICAntibiotic [9] [µg/mL] | MICCombination (antibiotic) [11] [µg/mL] | FICI [11] | MICAntibiotic [11] [µg/mL] | FICAntibiotic [11] | also measured |
| --- | --- | --- | --- | --- | --- | --- | --- | --- | --- | --- | --- | --- | --- | --- | --- | --- | --- | --- | --- | --- | --- |
| C[C@@H](O)[C@H]1C(=O)N2C(C(=O)O)=C(S[C@@H]3CN[C@H](C(=O)N(C)C)C3)[C@H](C)[C@H]12 [Meropenem] | 100 | 0.5 | <0.16 | 4 | eight out of nine | 2 | <0.51 | 4 | 0.25 | 1 | 2 | <0.25 | 8 | 256 | <0.31 | 1024 | 2 | <0.05 | 64 | 0.0313 | MICCombination (antibiotic) [1]: 2 µg/mL; FICI [1]: <0.28; MICAntibiotic [1]: 8 µg/mL; FICAntibiotic ([1]; with compound 2): 0.250; dose tolerated by larvae ([2]; Galleria mellonella, in vivo, 96 h): up to 200 mg/kg; FICAntibiotic [3]: 0.125; FICAntibiotic [5]: 0.500; MIC of antibiotic + Compound 2 in PAO200 ([6]; + compound 2 ≤8.7 μM, PAO200): 0.063 µg/mL; fold change of MIC + Compound 2 in PAO200 ([6]; + compound 2 ≤8.7 μM, PAO200): 4; MIC of antibiotic + Compound 2 in PAO750 ([7]; + compound 2 ≤8.7 μM, PAO750): 0.25 µg/mL; fold change of MIC + Compound 2 in PAO750 ([7]; + compound 2 ≤8.7 μM, PAO750): 4; FICAntibiotic [8]: 0.250; FICAntibiotic ([9]; with compound 2): 0.250; MICCombination (antibiotic) [10]: 2 µg/mL; FICI [10]: <0.13; MICAntibiotic [10]: 32 µg/mL; FICAntibiotic [10]: 0.063 |
| C[C@H]1[C@H](NC(=O)/C(=N\OC(C)(C)C(=O)O)c2csc(N)n2)C(=O)N1S(=O)(=O)O [Aztreonam] | 100 | 0.5 | <0.09 | 16 | seven out of nine | 2 | <0.16 | 16 | 0.25 | 0.5 | 8 | <0.26 | 32 | 4 | <0.19 | 32 | 16 | <0.28 | 64 | 0.250 | FICAntibiotic [3]: 0.031; MIC of antibiotic + Compound 2 in PAO200 ([6]; + compound 2 ≤8.7 μM, PAO200): 0.016 µg/mL; MIC of antibiotic + Compound 2 in PAO750 ([7]; + compound 2 ≤8.7 μM, PAO750): 0.031 µg/mL; FICAntibiotic [8]: 0.250 |
| CC(C)(O/N=C(\C(=O)N[C@@H]1C(=O)N2C(C(=O)[O-])=C(C[n+]3ccccc3)CS[C@H]12)c1csc(N)n1)C(=O)O [Ceftazidime] | 100 | 1 | <0.16 | 8 | three out of six | 2 | <0.28 | 8 | 2 | 1 | 8 | <0.13 | 64 | 64 | <0.19 | 512 | 32 | <0.28 | 128 | 0.250 | MICCombination (antibiotic) [1]: 1 µg/mL; FICI [1]: <0.19; MICAntibiotic [1]: 8 µg/mL; FICAntibiotic [5]: 0.250; MICCombination (antibiotic) [10]: 4 µg/mL; FICI [10]: <0.31; MICAntibiotic [10]: 16 µg/mL; FICAntibiotic [10]: 0.250 |
